The source of these data is patent US9581587B2, “Sperm staining and sorting methods” (INGURAN, LLC, priority 2011, dated 2017).

The test system of assay [1] is sperm. Kind of assay: Split quality, phenol red as added split enhancing dye (Example 8). In kind it is cell-based, bulls (Jersey, Holstein). The method, then: Two bulls were collected for the Example 8. The Bull 1 was a Jersey bulls and Bull 2 was a Holstein collected substantially in the manner described in example 1. Sperm from Bull 1 extended to 160 million per with a first buffer, (TALP described in table 1 at a pH 7.4) and divided into two groups for staining. The first group was stained with 44 μM Hoechst 33342 and the second group was stained with 60 μM Hoechst 33342. Similarly, bull 2 was suspended to 160 million per mL the first buffer, (TALP described in table 1 at a pH 7.4) and divided into three groups for staining. The first group was stained with 28 μM Hoechst 33342 and the second group was stained with 44 μM Hoechst 33342 and the third group was stained with 66 μM Hoechst 33342. Each group was incubated for 1 hour at 34° C. and then extended in an equal volume of the second buffer. […] The stained samples were each treated with a variety of quenching dyes and combinations of quenching dyes indicated in below. […] After calibration, screen shots of sorting histograms were taken and histograms split quality was measured as a peak to valley ratio in the same way described in Example 5 with reference to FIG. 4 and the resulting data is found in Table 16.

Assay [2] has as its system sperm. Kind of assay: Split quality, dead quenching dye combined with split enhancing dye (Example 7). It is filed as cell-based, Jersey bull. On the procedure:
A single Jersey bull was collected at an initial sperm concentration 1810×10^6 sperm/ml in a volume of 3.9 ml. […] Samples were split into two equal aliquots and in one of each pair of samples, a stock solution of phenol red was added to make a final phenol red concentration of 620 μM. […] At each concentration, one control was compared to the addition of phenol red as a split enhancing dye at a concentration of 620 μM. Sorting was performed on a MoFlo SX (Beckman Coulter, USA) in substantially the same manner described in Example 5. After calibration, screen shots of sorting histograms were taken and split quality was measured by the peak to valley ration in the same way described in Example 5. The resulting data is found in Table 15.

The test system of assay [3] is membrane compromised sperm. Kind of assay: Bivariate plots comparing dead quenching dyes (FIG. 3). It is filed as cell-based. Particulars: three bulls, equal amounts of Hoechst 33342 and of dye. From the text: FIG. 3 illustrates comparisons of bivariate plots generated in sex sorting sperm which reflect the intensity of the excited DNA selective fluorescent dye during sorting. Three bulls were stained with equal amounts of Hoechst 33342 and with an equal amount of yellow food dye No. 6 and red food dye No. 40. The region labeled as R4 surrounds what is considered the “dead” sperm population, while the region R1 is centered on viable, oriented sperm. It can be seen that for each bull yellow food dye no.

Assay [4] has as its system sperm. Put plainly: Post thaw motility Deer (Example 3). In kind it is cell-based. The note with it: post thaw 0 HR; RED TALP with 16 μL Hoechst 33342, Y6 with 14 μL. On the procedure: Each of deer and elk were collected in the Tris-egg yolk catch fluid described as a catch media in Example 1, and shipped for sorting.
A portion of each of the deer and the elk were stained by the red food dye No. 40 treatment 40% with 16 μL Hoechst 33342 and the yellow food dye No. 6 treatment with 14 μL Hoechst 33342 as described in Example 1.
Samples were each bulk sorted with the same machine and parameters described in Example 1. Both sorted X and sorted Y sperm were collected into a single catch. The sorted samples were then frozen like those described in Example 1.
Frozen thawed samples were then tested for post thaw motilities and post thaw DNA fragmentation. Post thaw motilities were slightly higher in Elk sorted with a yellow quencher, while a more significant difference existed in progressive motility. In Table 10, post thaw DNA fragmentation in Elk can be seen at about double after 48 hours when red food dye No. 40 is compared to yellow food dye No. 6 as a dead quencher.

The subject of assay [5] is sperm. Put plainly: Split quality, split enhancing dyes at various concentrations and incubation times (Example 10). It is filed as cell-based, bulls. The note with it: 15, 45, 125 μM; 30-75 minutes; averaged over 8 bulls. On the procedure:
Eight bulls were collected, including 4 Jersey bulls, 3 Holstein bulls and one mixed dairy-breed. The ejaculates were collected at concentrations ranging from 1700×10^6 sperm/ml to 1100×10^6 sperm/ml and all had progressive motility of a least 60%.
Sperm from each bull was extended to 160 million per ml with a first buffer, (TALP described in table 1 at a pH 7.4) and stained with 64 μM (164/2 mL) Hoechst 33342 at 34° C. Additionally, Phenol Red, Red Food Dye No. 2, Red Food Dye No. 3, and Red Food Dye No. 4, were each tested as split enhancing dyes in the first buffer at concentrations of 15 μM, 45 μM and 125 μM. For each bull, each concentration of each dye was incubated for periods of 30 minutes, 45 minutes, 60 minutes, and 75 minutes were utilized before a second buffer with an additional dye was applied.
Each sample was then extended in an equal volume of a second buffer which comprised a 5.5 pH modified TALP having 25 μM yellow food dye No. 6 (acting as a dead quenching dye) in addition to the split enhancing dye provided in the first buffer. The second buffer was applied to every sample at 30 minutes, 45 minutes, 60 minutes, and 75 minutes. A control was additionally taken without any split enhancing dye for every bull at every time interval.
Sorting was performed on a MoFlo SX (Beckman Coulter, USA) in substantially the same manner described in Example 5. After calibration, screen shots of sorting histograms were taken and split quality was measured by peak to valley ratios in the same way described in Example 5 with reference to FIG. 4 and the resulting data, averaged over all 8 bulls, is found in Tables 18-21. Additionally, screen shots of bivariate plots were taken to measure the added dead quenching capacity of the mixed dead quenching and split enhancing dyes.

For assay [6], the system named is membrane compromised sperm. Kind of assay: Dead gate intensity, yellow 5 and phenol red at higher concentrations (Example 6). It is filed as cell-based, Jersey bull. The note with it: Hoechst 12 μL/2 mL.

As for `O=S(=O)([O-])c1ccc(N=Nc2c(O)ccc3cc(S(=O)(=O)[O-])ccc23)cc1.[Na+].[Na+]` [Yellow 6, Disodium 6-hydroxy-5[(4-sulfophenyl)azo]-2-naphthalenesulfononate], the PV in the assay on sperm [1] (Bull 1, Hoechst 33342 44 μM, R40 0, Y6 50 μM, PR 0) stood at 1.20. In addition, the “Height of Peak Divided by Height of Valley” value in the assay with sperm [2] (150 million cells per mL, Yellow 6 62 μM, Phenol Red 0 μM) is on record as 1.30. Further, the “quenching of the dead population compared to red food dye No. 40” value in assay [3] is “superior quenching”. In the assay with sperm [4], this compound registered a Motile of 67.5 and a Progressive of 53.2.
For the compound `O=S1(=O)OC(c2ccc(O)cc2)(c2ccc(O)cc2)c2ccccc21` [Phenol Red, phenolsulfonphthalein], the “effect of adding phenol red on split quality” value in the assay on sperm [1] (each Hoechst staining level, with Red 40 or Yellow 6) is “always improved split quality”. Further, the “peak quality of combination versus dead quencher alone” value in the assay on sperm [2] (phenol red 620 μM with yellow food dye No. 6 62 μM, each sperm concentration tested) was “gives better peak quality”. In the assay with sperm [5], the “split enhancing effect compared to control” value is recorded as “provided consistent split improvements at all concentrations after 30 minutes”. Further, the Intensity in assay [6] (dye 125 μM, pH 7.40) is listed as 85%; in assay [6] (dye 250 μM, pH 7.40) it was 76%; in assay [6] (dye 500 μM, pH 7.40), 66%; in assay [6] (dye 750 μM, pH 7.40), 56%; in assay [6] (dye 875 μM, pH 7.40), 47%; in assay [6] (dye 1250 μM, second buffer pH 7.40) it was 43%.
With `COc1cc(S(=O)(=O)O)c(C)cc1N=Nc1c(O)ccc2cc(S(=O)(=O)O)ccc12` [Red 40, 6-hydroxy-5-[(2-methoxy-5-methyl-4-sulfophenyl)azo]-2-naphthalenesulfonic acid, reference compound], the Progressive with sperm [4] amounted to 43.0.
